Experimental data as given in paper PMC7988488 (The Journal of Biological Chemistry, 2021).
Where two headings read alike, the source gives them in different places.

What was measured:
[1] = system: capsaicin-induced nociceptive behavior; assay: Capsaicin-induced nociception; assay type: in vivo, mice; details: 100 μg/kg i.m., 30 min before intraplantar capsaicin 1 μg; 5-min observation
Method: On the day of testing, ICR male mice were treated by intramuscular injection with equal volume of saline, H4 (10 and 30 μg/kg i.m.), or a positive control in the form of the potent Nav1.7 antagonist PF-05198007 (100 μg/kg i.m.) ([35]). Thirty minutes following test article treatment, animals were subjected to intraplantar injection of 1 μg of capsaicin in a volume of 20 μl of 5% EtOH in saline into the right hind paw. Immediately after the capsaicin injection, the total time spent engaged in licking of the injected hind paw was manually recorded over a 5-min period. All dosing and scoring activities were conducted by experimenters who were fully blinded to treatment conditions.

[2] = system: CFA-induced mechanical allodynia; set-up: species or system mice; details: mouse, in vivo
acute heat pain response = assay type: in vivo, mice
[3] = system: formalin-induced spontaneous pain behaviors; assay type: in vivo, mice
hNav1.7 mutants = assay type: cell-based, human

## Nc1[nH]ncc1-c1cc(Cl)ccc1Oc1cc(F)c(S(=O)(=O)Nc2cscn2)cc1Cl [PF-05089771]
[1]
  capsaicin-elicited paw licking response (in words): significantly blocked

## CN1CC[C@]23c4c5ccc(O)c4O[C@H]2[C@@H](O)C=C[C@H]3[C@H]1C5 [morphine]
[2]
  duration of anti-allodynic effect: 2 h
  paw withdrawal threshold compared with saline (in words): significantly enhanced
Acute heat pain response; mouse, in vivo, SD
  hot plate latency: 17.0 ± 0.9 s
[3]; mouse, in vivo
  paw licking time, early phase: 110.3 ± 12.9 s
  paw licking time, late phase: 86.7 ± 8.5 s

## Hainantoxin-III [Compound 1]
Acute heat pain response; 100 μg/kg i.p., 1 h after treatment, plate 55 °C, mean ± SD, n = 5 to 8
  hot plate latency: 15.1 ± 0.9 s
[3]; 100 μg/kg i.m., 30 min before formalin, early phase 0-10 min, control 145.2 ± 6.9 s
  paw licking time, early phase: 68.1 ± 9.7 s
[3]; 100 μg/kg i.m., 30 min before formalin, late phase 15-35 min, control 224 ±16.7 s
  paw licking time, late phase: 71.0 ± 13.0 s
hNav1.7 mutants
  affinity for hNav1.7 mutants versus WT hNav1.7 (in words): did not change significantly
